≈ marks a conversion by molar mass, not a printed value.
Tests used:
[1] = Metabolic stability in human liver microsomes assessed as intrinsic clearance; format: ADME, Microsome; conditions: read-out: CLH
[2] = Thermodynamic solubility of the compound at pH 7; format: physicochemical; conditions: buffer, read-out: Therm_solubility
[3] = Clearance in Sprague-Dawley rat at 5 mg/kg, po or 1.25 mg/kg, iv relative to liver blood flow; format: ADME, organism-based; conditions: in vivo
[4] = Clearance in Mongrel dog at 2.5 mg/kg, po or 1 mg/kg, iv relative to liver blood flow; format: ADME, organism-based, Canis lupus familiaris; conditions: in vivo
[5] = Volume of distribution at steady state in Sprague-Dawley rat at 5 mg/kg, po or 1.25 mg/kg, iv; format: ADME, organism-based; conditions: in vivo
[6] = Volume of distribution at steady state in Mongrel dog at 2.5 mg/kg, po or 1 mg/kg, iv; format: ADME, organism-based, Canis lupus familiaris; conditions: in vivo
[7] = Half life in Sprague-Dawley rat at 5 mg/kg, po or 1.25 mg/kg, iv; format: ADME, organism-based; conditions: in vivo
[8] = Half life in Mongrel dog at 2.5 mg/kg, po or 1 mg/kg, iv; format: ADME, organism-based, Canis lupus familiaris; conditions: in vivo
[9] = Cmax in Sprague-Dawley rat at 5 mg/kg, po; format: ADME, organism-based; set-up: dose 5 mg/kg, route po; conditions: in vivo
[10] = Cmax in Mongrel dog at 2.5 mg/kg, po; format: ADME, organism-based, Canis lupus familiaris; set-up: dose 2.5 mg/kg, route po; conditions: in vivo
[11] = Tmax in Sprague-Dawley rat at 5 mg/kg, po; format: ADME, organism-based; conditions: in vivo
[12] = Tmax in Mongrel dog at 2.5 mg/kg, po; format: ADME, organism-based, Canis lupus familiaris; conditions: in vivo
[13] = AUC (0 to infinity) in Sprague-Dawley rat at 5 mg/kg, po; format: ADME, organism-based; set-up: time infinity, dose 5 mg/kg, route po; conditions: in vivo
[14] = AUC (0 to infinity) in Mongrel dog at 2.5 mg/kg, po; format: ADME, organism-based, Canis lupus familiaris; set-up: time infinity, dose 2.5 mg/kg, route po; conditions: in vivo
[15] = Ratio of AUC (0 to 24 hrs) in liver to plasma in Sprague-Dawley rat at 5 mg/kg, po or 1.25 mg/kg, iv; format: ADME, organism-based; conditions: read-out: Ratio AUC
[16] = Oral bioavailability in Sprague-Dawley rat at 5 mg/kg; format: ADME, organism-based; conditions: in vivo
[17] = Oral bioavailability in Mongrel dog at 2.5 mg/kg; format: ADME, organism-based, Canis lupus familiaris; conditions: in vivo
[18] = Clearance in CD1 mouse at 10 mg/kg, po or 2.5 mg/kg, iv relative to liver blood flow; format: ADME, organism-based; conditions: in vivo
[19] = Volume of distribution at steady state in CD1 mouse at 10 mg/kg, po or 2.5 mg/kg, iv; format: ADME, organism-based; conditions: in vivo
[20] = Half life in CD1 mouse at 10 mg/kg, po or 2.5 mg/kg, iv; format: ADME, organism-based; conditions: in vivo
[21] = Cmax in CD1 mouse at 10 mg/kg, po; format: ADME, organism-based; set-up: dose 10 mg/kg, route po; conditions: in vivo
[22] = Tmax in CD1 mouse at 10 mg/kg, po; format: ADME, organism-based; conditions: in vivo
[23] = AUC (0 to infinity) in CD1 mouse at 10 mg/kg, po; format: ADME, organism-based; set-up: time infinity, dose 10 mg/kg, route po; conditions: in vivo
[24] = Oral bioavailability in CD1 mouse at 10 mg/kg; format: ADME, organism-based; conditions: in vivo
[25] = biological target: Core antigen (Hepatitis B virus) (UniProt Q03732); experiment: Modulation of capsid assembly in HBV infected in human HepG2.2.15 cells assessed as fold shift in inhibition of viral DNA replication in presence of 40% normal human serum incubated for 3 days followed by replacement with fresh medium containing compound and measured after 3 days by QuantiGene assay; format: cell-based; conditions: time 6.0 day
Chain of Core antigen (Hepatitis B virus) (Q03732 as listed by the source): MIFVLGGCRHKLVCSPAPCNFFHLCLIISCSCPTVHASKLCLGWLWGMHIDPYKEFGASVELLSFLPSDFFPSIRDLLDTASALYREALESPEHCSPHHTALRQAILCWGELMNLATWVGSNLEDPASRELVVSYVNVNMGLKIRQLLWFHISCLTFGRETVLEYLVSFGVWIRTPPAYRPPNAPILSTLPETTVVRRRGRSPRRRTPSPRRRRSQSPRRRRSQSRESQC

Cytochrome P450 [26] = experiment: Induction of CYP (unknown origin); format: ADME, protein assay; conditions: human
Cytochrome P450 [27] = experiment: Inhibition of CYP (unknown origin); format: ADME, protein assay; conditions: human
[28] = Solubility of the compound; format: physicochemical
[29] = Clearance in CD1 mouse at 2 mg/kg, iv; format: ADME, organism-based; conditions: in vivo
[30] = Volume of distribution at steady state in CD1 mouse at 2 mg/kg, iv; format: ADME, organism-based; conditions: in vivo, read-out: Vdss
[31] = Half life in CD1 mouse at 2 mg/kg, iv; format: ADME, organism-based; conditions: in vivo
[32] = Clearance in Sprague-Dawley rat at 0.6 mg/kg, iv; format: ADME, organism-based; conditions: in vivo
[33] = Volume of distribution at steady state in Sprague-Dawley rat at 0.6 mg/kg, iv; format: ADME, organism-based; conditions: in vivo, read-out: Vdss
[34] = Half life in Sprague-Dawley rat at 0.6 mg/kg, iv; format: ADME, organism-based; conditions: in vivo

## CN1OC(CO)Cn2nc3c(c2C1=O)CN(C(=O)Nc1ccc(F)c(Cl)c1)CC3 (racemic)
[1]
  CLint scaled: 0.48 L/h/kg
[2]
  solubility thermodynamic: 183 µM (≈ 77.6 µg/mL)

## CN(OC1COC1)C(=O)c1n[nH]c2c1CN(C(=O)Nc1cccc(Cl)c1)CC2
[1]
  CLint scaled: 0.48 L/h/kg
[2]
  solubility thermodynamic: 183 µM (≈ 74.3 µg/mL)

## C[C@@H]1Cc2nn3c(c2CN1C(=O)Nc1ccc(F)c(Cl)c1)C(=O)N(C)O[C@@H](CN(C)C)C3
[1]
  CLint scaled: 1.14 L/h/kg
[2]
  solubility thermodynamic: 176 µM (≈ 81.8 µg/mL)

## C[C@@H]1Cc2nn3c(c2CN1C(=O)Nc1ccc(F)c(C#N)c1)C(=O)N(C)O[C@@H](COCC(F)F)C3
[1]
  CLint scaled: < 0.3 L/h/kg
[2]
  solubility thermodynamic: 22 µM (≈ 10.8 µg/mL)
[3]
  CLH: 20%
[4]
  CLH: 9%
[5]
  Vdss: 2 L/kg
[6]
  Vdss: 1.2 L/kg
[7]; Sprague-Dawley
  half-life: 1.8 h
[8]
  half-life: 5.6 h
[9]; Sprague-Dawley, read-out: Cmax
  Cmax: 0.533 µg/mL
[10]
  Cmax: 1.17 µg/mL
[11]; Sprague-Dawley, read-out: Tmax
  Tmax: 1 h
[12]
  Tmax: 0.75 h
[13]
  AUC(0-inf): 3.85 µg·h/mL
[14]
  AUC(0-inf): 10.6 µg·h/mL
[15]
  Kp: 3.8
[16]
  bioavailability: 71%
[17]
  bioavailability: 70%

## C[C@@H]1Cc2nn3c(c2CN1C(=O)Nc1ccc(F)c(Cl)c1)C(=O)N(C)O[C@@H](CO)C3
[1]
  CLint scaled: 0.66 L/h/kg
[2]
  solubility thermodynamic: 183 µM (≈ 80.1 µg/mL)

## CON(C)C(=O)c1n[nH]c2c1CN(C(=O)Nc1cccc(Cl)c1)CC2
[1]
  CLint scaled: 1.98 L/h/kg

## CCN(C)C(=O)c1n[nH]c2c1CN(C(=O)Nc1cccc(Cl)c1)CC2
[1]
  CLint scaled: 5.22 L/h/kg

## CCOC(=O)c1n[nH]c2c1CN(C(=O)Nc1cccc(Cl)c1)CC2
[1]
  CLint scaled: 10.3 L/h/kg

## C[C@@H]1Cc2nn3c(c2CN1C(=O)Nc1ccc(F)c(C#N)c1)C(=O)N(C)O[C@@H](CF)C3
[1]
  CLint scaled: < 0.3 L/h/kg
[2]
  solubility thermodynamic: 63 µM (≈ 27.1 µg/mL)
[3]
  CLH: 93%
[18]
  CLH: 21%
[4]
  CLH: 11%
[5]
  Vdss: 2.5 L/kg
[19]
  Vdss: 6.3 L/kg
[6]
  Vdss: 1.5 L/kg
[7]; po, 5 mg/kg
  t1/2: 0.4 h
[20]
  half-life: 7.9 h
[8]
  half-life: 5.4 h
[9]
  Cmax: 0.0201 µg/mL
[21]
  Cmax: 1.42 µg/mL
[10]
  Cmax: 1.31 µg/mL
[11]; po, 5 mg/kg
  Tmax: 0.5 h
[22]
  Tmax: 0.4 h
[12]
  Tmax: 1 h
[13]
  AUC(0-inf): 0.0718 µg·h/mL
[23]
  AUC(0-inf): 4.34 µg·h/mL
[14]
  AUC(0-inf): 9.55 µg·h/mL
[16]
  bioavailability: 7.4%
[24]
  bioavailability: 66%
[17]
  bioavailability: 79%
[25]
  fold change (FC): 2
Cytochrome P450 [26]
  Activity: Not Active
Cytochrome P450 [27]
  inhibition (INH): Not Active

## O=C(Nc1cccc(Cl)c1)N1CCc2[nH]nc(-c3ccccc3)c2C1
[1]
  CLint scaled: 11.5 L/h/kg

## C[C@H]1Cc2[nH]nc(-c3cscn3)c2CN1C(=O)Nc1ccc(F)c(C#N)c1
[28]
  solubility: 45 µM (≈ 17.2 µg/mL)

## CC(C)ON(C)C(=O)c1n[nH]c2c1CN(C(=O)Nc1cccc(Cl)c1)CC2
[1]
  CLint scaled: 3.9 L/h/kg

## CCCC(=O)c1n[nH]c2c1CN(C(=O)Nc1cccc(Cl)c1)CC2
[1]
  CLint scaled: 12.8 L/h/kg

## CN1O[C@@H](CO)Cn2nc3c(c2C1=O)CN(C(=O)Nc1ccc(F)c(Cl)c1)CC3
[1]
  CLint scaled: 0.42 L/h/kg

## Cc1cc(NC(=O)N2Cc3c(nn4c3C(=O)N(C)O[C@@H](CO)C4)C[C@H]2C)ccc1F
[1]
  CLint scaled: < 0.3 L/h/kg
[2]
  solubility thermodynamic: > 200 µM
[29]
  clearance: 2.34 L/h/kg
[30]
  Vd: 2.2 L/kg
[31]
  half-life: 1.5 h
[32]
  clearance: 2.82 L/h/kg
[33]
  Vd: 2.1 L/kg
[34]
  half-life: 0.7 h

## O=C(Nc1cccc(Cl)c1)N1CCc2[nH]nc(C(=O)N3CCCCO3)c2C1
[1]
  CLint scaled: 2.28 L/h/kg

## CN(OCCO)C(=O)c1n[nH]c2c1CN(C(=O)Nc1cccc(Cl)c1)CC2
[1]
  CLint scaled: 1.86 L/h/kg
[2]
  solubility thermodynamic: 161 µM (≈ 63.4 µg/mL)

## C[C@@H]1Cc2nn3c(c2CN1C(=O)Nc1ccc(F)c(C#N)c1)C(=O)N(C)OCC3
[1]
  CLint scaled: < 0.3 L/h/kg
[2]
  solubility thermodynamic: 80 µM (≈ 31.9 µg/mL)

## C[C@@H]1Cc2nn3c(c2CN1C(=O)Nc1ccc(F)c(C#N)c1)C(=O)N(C)O[C@@H](CO)C3
[1]
  CLint scaled: < 0.3 L/h/kg
[2]
  solubility thermodynamic: > 200 µM
[29]
  clearance: 5.76 L/h/kg
[30]
  Vd: 4 L/kg
[31]
  half-life: 1.2 h
[32]
  clearance: 3.96 L/h/kg
[33]
  Vd: 1.9 L/kg
[34]
  half-life: 0.5 h

## CCON(C)C(=O)c1n[nH]c2c1CN(C(=O)Nc1cccc(Cl)c1)CC2
[1]
  CLint scaled: 3.3 L/h/kg

## CN1O[C@H](CO)Cn2nc3c(c2C1=O)CN(C(=O)Nc1ccc(F)c(Cl)c1)CC3
[1]
  CLint scaled: 0.54 L/h/kg

## C[C@@H]1Cc2nn3c(c2CN1C(=O)Nc1ccc(F)c(C#N)c1)C(=O)N(C)O[C@@H](C(=O)N(C)CC(F)F)C3
[1]
  CLint scaled: 0.84 L/h/kg
[2]
  solubility thermodynamic: 45 µM (≈ 23.4 µg/mL)

## C[C@@H]1Cc2nn3c(c2CN1C(=O)Nc1ccc(F)c(C(F)(F)F)c1)C(=O)N(C)O[C@@H](CO)C3
[1]
  CLint scaled: 0.432 L/h/kg
[2]
  solubility thermodynamic: 172 µM (≈ 81.1 µg/mL)
[29]
  clearance: 3.48 L/h/kg
[30]
  Vd: 5.3 L/kg
[31]
  half-life: 1.6 h
[32]
  clearance: 1.44 L/h/kg
[33]
  Vd: 2.3 L/kg
[34]
  half-life: 1.4 h
